Our source for the MIC values is ChEMBL document CHEMBL1149402, “New potential antibacterials: a synthetic route to N-aryloxazolidinone/3-aryltetrahydroisoquinoline hybrids” (2006).

The assay deals with Staphylococcus aureus. The assay is described as follows: Antibacterial activity against methicillin-susceptible Staphylococcus aureus ATCC 29213. It counts as functional.

Take `Br.CC(=O)NC[C@H]1CN(c2ccc(C3Cc4cc(O)c(O)cc4CN3)cc2)C(=O)O1` (stereo partly specified): the MIC (in general, the least concentration at which growth counts as inhibited) was above 64 µg/mL.
